Values joined by “and” are separate entries in the source; they are usually repeats but may differ in a detail not shown here. Equal entries are not always repeated. Toxic doses and inconclusive results are not listed. No stated cut-off is given here; in the data, active means T/C of 150% or more; inactive means T/C below 125%.
Test system: L1210 leukemia ip in BDF1 mice, survival T/C
Experiment: NCI In Vivo Anticancer Drug Screen. Data for tumor model L1210 Leukemia (intraperitoneal) in B6D2F1 (BDF1) mice
Details: endpoint: mean survival time, higher = longer survival
Summary of the method: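 Transplanted-tumor mice were given test agent; controls received vehicle only. Survival readings from the two groups were divided (treated over control).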

[1] = dose: 75.0 mg/kg/injection, schedule: Q01DX001 (ip), vehicle: saline
[2] = dose: 150.0 mg/kg/injection, schedule: Q01DX001 (ip), vehicle: saline
[3] = dose: 100.0 mg/kg/injection, schedule: Q04DX003 (ip), vehicle: saline with Tween-80
[4] = dose: 200.0 mg/kg/injection, schedule: Q04DX003 (ip), vehicle: saline with Tween-80
[5] = dose: 400.0 mg/kg/injection, schedule: Q04DX003 (ip), vehicle: saline with Tween-80
[6] = dose: 50.0 mg/kg/injection, schedule: Q01DX009 (ip), vehicle: saline with Tween-80
[7] = dose: 100.0 mg/kg/injection, schedule: Q01DX009 (ip), vehicle: saline with Tween-80
[8] = dose: 200.0 mg/kg/injection, schedule: Q01DX009 (ip), vehicle: saline with Tween-80
[9] = dose: 400.0 mg/kg/injection, schedule: Q04DX002 (ip), vehicle: saline with Tween-80
[10] = dose: 100.0 mg/kg/injection, schedule: Q01DX009 (ip), vehicle: Klucel (hydroxypropylcellulose) (HPC)
[11] = dose: 200.0 mg/kg/injection, schedule: Q01DX009 (ip), vehicle: Klucel (hydroxypropylcellulose) (HPC)
[12] = dose: 400.0 mg/kg/injection, schedule: Q01DX009 (ip), vehicle: Klucel (hydroxypropylcellulose) (HPC)
[13] = dose: 400.0 mg/kg/injection, schedule: Q01DX009 (ip), vehicle: saline with Tween-80

Measured: T/C

CC(=O)Nc1cc(Cl)c(Nc2cc(S(=O)(=O)O)c(N)c3c2C(=O)c2ccccc2C3=O)c(Cl)c1
inactive: [1] 96 % of control | [2] 88 % of control

Cn1c(=S)sc2cc(Cl)ccc21
inactive: [3] 104 % of control | [4] 101 % of control | [5] 98 % of control

FC(F)C(F)(F)C(F)(F)C(F)(F)C(F)(F)C(F)(F)COc1nc(OCC(F)(F)C(F)(F)C(F)(F)C(F)(F)C(F)(F)C(F)F)nc(OCC(F)(F)C(F)(F)C(F)(F)C(F)(F)C(F)(F)C(F)F)n1
inactive: dose: 25.6 mg/kg/injection, schedule: Q04DX002 (ip), vehicle: saline with Tween-80 97 % of control | [6] 89 % of control | dose: 64.0 mg/kg/injection, schedule: Q04DX002 (ip), vehicle: saline with Tween-80 91 % of control | [7] 92 % of control | [3] 91 % of control | dose: 160.0 mg/kg/injection, schedule: Q04DX002 (ip), vehicle: saline with Tween-80 97 % of control | [8] 90 % of control | [4] 86 % of control | [9] 91 % of control | [5] 87 % of control

COC(=O)NC1C(C)C=CC(C)C1I (stereo unspecified)
inactive: dose: 100.0 mg/kg/injection, schedule: Q01DX009 (ip), vehicle: other 109 % of control | [3] 104 % of control | dose: 200.0 mg/kg/injection, schedule: Q01DX009 (ip), vehicle: other 96 % of control | [4] 98 % of control | dose: 400.0 mg/kg/injection, schedule: Q01DX009 (ip), vehicle: other 113 % of control | [5] 97 % of control

CCCCCCCCCCCNC=O
inactive: dose: 100.0 mg/kg/injection, schedule: Q01DX001 (ip), vehicle: saline 103 % of control | dose: 200.0 mg/kg/injection, schedule: Q01DX001 (ip), vehicle: saline 101 % of control | dose: 400.0 mg/kg/injection, schedule: Q01DX001 (ip), vehicle: saline 101 % of control

Nc1c2ccccc2nc2ccccc12
inactive: dose: 5.0 mg/kg/injection, schedule: Q01DX009 (ip), vehicle: Klucel (hydroxypropylcellulose) (HPC) 105 % of control | dose: 10.0 mg/kg/injection, schedule: Q01DX009 (ip), vehicle: Klucel (hydroxypropylcellulose) (HPC) 98 % of control | dose: 15.0 mg/kg/injection, schedule: Q01DX009 (ip), vehicle: Klucel (hydroxypropylcellulose) (HPC) 103 % of control | [3] 86 % of control | [4] 86 % of control

CC(=O)n1cc(/C=C2\N=C(c3ccccc3)OC2=O)c2ccccc21
inactive: [10] 94 % of control | [11] 96 % of control | [12] 94 % of control

CCCC(CCCC(=O)O)C(=O)O (stereo unspecified)
inactive: dose: 50.0 mg/kg/injection, schedule: Q01DX001 (ip), vehicle: carboxymethylcellulose (CMC) 86 % of control | dose: 100.0 mg/kg/injection, schedule: Q01DX001 (ip), vehicle: carboxymethylcellulose (CMC) 90 % of control | dose: 200.0 mg/kg/injection, schedule: Q01DX001 (ip), vehicle: carboxymethylcellulose (CMC) 92 % of control | dose: 400.0 mg/kg/injection, schedule: Q01DX001 (ip), vehicle: carboxymethylcellulose (CMC) 90 % of control

COc1ccc(Br)cc1C1OC(=O)c2c(OC)c(OC)cc(O)c21 (stereo unspecified)
inactive: dose: 100.0 mg/kg/injection, schedule: Q01DX001 (ip), vehicle: Klucel (hydroxypropylcellulose) (HPC) 96 % of control | dose: 200.0 mg/kg/injection, schedule: Q01DX001 (ip), vehicle: Klucel (hydroxypropylcellulose) (HPC) 98 % of control | dose: 400.0 mg/kg/injection, schedule: Q01DX001 (ip), vehicle: Klucel (hydroxypropylcellulose) (HPC) 94 % of control

CC1CN=C(c2ccc(NC(=O)NCCCCCCCCCNC(=O)Nc3ccc(C4=NCC(C)N4)cc3)cc2)N1 (stereo unspecified)
inactive: dose: 6.5 mg/kg/injection, schedule: Q01DX Z (ip), vehicle: carboxymethylcellulose (CMC) 86 % of control | dose: 13.0 mg/kg/injection, schedule: Q01DX Z (ip), vehicle: carboxymethylcellulose (CMC) 100 % of control | dose: 26.0 mg/kg/injection, schedule: Q01DX Z (ip), vehicle: carboxymethylcellulose (CMC) 106 % of control | dose: 52.0 mg/kg/injection, schedule: Q01DX Z (ip), vehicle: carboxymethylcellulose (CMC) 107 % of control

CCCCC(CC)C1NC(=O)N(SC(Cl)(Cl)Cl)C1=O (stereo unspecified)
inactive: dose: 12.5 mg/kg/injection, schedule: Q01DX009 (ip), vehicle: saline with Tween-80 103 % of control | dose: 25.0 mg/kg/injection, schedule: Q01DX009 (ip), vehicle: saline with Tween-80 92 % of control | [6] 101 % of control and 106 % of control

Nc1ccc(NC(=O)C(=O)O)cc1
inactive: [3] 97 % of control | [4] 88 % of control

CC(C=O)CC1CCCCC1 (stereo unspecified)
inactive: [7] 97 % of control | [3] 95 % of control | [8] 95 % of control | [4] 97 % of control | [13] 95 % of control | [5] 95 % of control

CC1CC(C)CC(C)C(O)/C(C#N)=C/C=C/CC(C2CCCC2C(=O)O)OC(=O)CC(O)C(C)C1 (stereo unspecified)
inactive: dose: 0.5 mg/kg/injection, schedule: Q01DX009 (ip), vehicle: saline with Tween-80 98 % of control | dose: 1.0 mg/kg/injection, schedule: Q01DX009 (ip), vehicle: saline with Tween-80 104 % of control | dose: 2.0 mg/kg/injection, schedule: Q01DX009 (ip), vehicle: saline with Tween-80 96 % of control

CCCCc1ccc(C(=O)c2ccccc2)c2c1C(=O)c1ccccc1C2=O
inactive: [10] 97 % of control | dose: 100.0 mg/kg/injection, schedule: Q04DX003 (ip), vehicle: Klucel (hydroxypropylcellulose) (HPC) 92 % of control | [11] 94 % of control | dose: 200.0 mg/kg/injection, schedule: Q04DX003 (ip), vehicle: Klucel (hydroxypropylcellulose) (HPC) 92 % of control | [12] 95 % of control | dose: 400.0 mg/kg/injection, schedule: Q04DX003 (ip), vehicle: Klucel (hydroxypropylcellulose) (HPC) 96 % of control

C(=NCC(CCN1CCOCC1)(CCN1CCOCC1)c1cccc2ccccc12)C(CCN1CCOCC1)(CCN1CCOCC1)c1cccc2ccccc12
inactive: dose: 25.0 mg/kg/injection, schedule: Q04DX003 (ip), vehicle: saline with Tween-80 90 % of control | dose: 50.0 mg/kg/injection, schedule: Q04DX003 (ip), vehicle: saline with Tween-80 100 % of control | [3] 89 % of control

O=C(CCCCCCCCC(=O)N/N=C/c1ccccc1)N/N=C/c1ccccc1
inactive: dose: 100.0 mg/kg/injection, schedule: Q01DX001 (ip), vehicle: saline with Tween-80 96 % of control and 90 % of control | [7] 102 % of control and 92 % of control | dose: 100.0 mg/kg/injection, schedule: Q04DX002 (ip), vehicle: saline with Tween-80 93 % of control and 97 % of control | [3] 97 % of control | dose: 200.0 mg/kg/injection, schedule: Q01DX001 (ip), vehicle: saline with Tween-80 88 % of control | [8] 93 % of control and 97 % of control | dose: 200.0 mg/kg/injection, schedule: Q04DX002 (ip), vehicle: saline with Tween-80 95 % of control and 87 % of control | [4] 97 % of control | dose: 400.0 mg/kg/injection, schedule: Q01DX001 (ip), vehicle: saline with Tween-80 86 % of control and 91 % of control | [13] 91 % of control and 92 % of control | [9] 93 % of control and 90 % of control | [5] 92 % of control

Nc1ncnc2nc(-c3ccc(C(=O)c4cccc(NC(=O)Nc5ccc(S(=O)(=O)F)cc5)c4)cc3)[nH]c12
inactive: dose: 37.5 mg/kg/injection, schedule: Q01DX001 (ip), vehicle: saline 95 % of control | [1] 92 % of control | [2] 90 % of control
